Results taken from patent publication US8946215B2, “Hydroxy-substituted imidazo[1,2-a]pyridinecarboxamides and their use” (Bayer Pharma Aktiengesellschaft, priority 2012, dated 2015).
Counter-ions that a name gives are not always drawn.

biological target: T1, recombinant guanylate cyclase reporter cell line (Rattus norvegicus, UniProt P19686+P20595); experiment: Action on recombinant guanylate cyclase reporter cell line; type: cell-based; conditions: in some cases mean values obtained from individual determinations
T1 construct: expressed in transfected cells
T1 sequence (P20595 1-619): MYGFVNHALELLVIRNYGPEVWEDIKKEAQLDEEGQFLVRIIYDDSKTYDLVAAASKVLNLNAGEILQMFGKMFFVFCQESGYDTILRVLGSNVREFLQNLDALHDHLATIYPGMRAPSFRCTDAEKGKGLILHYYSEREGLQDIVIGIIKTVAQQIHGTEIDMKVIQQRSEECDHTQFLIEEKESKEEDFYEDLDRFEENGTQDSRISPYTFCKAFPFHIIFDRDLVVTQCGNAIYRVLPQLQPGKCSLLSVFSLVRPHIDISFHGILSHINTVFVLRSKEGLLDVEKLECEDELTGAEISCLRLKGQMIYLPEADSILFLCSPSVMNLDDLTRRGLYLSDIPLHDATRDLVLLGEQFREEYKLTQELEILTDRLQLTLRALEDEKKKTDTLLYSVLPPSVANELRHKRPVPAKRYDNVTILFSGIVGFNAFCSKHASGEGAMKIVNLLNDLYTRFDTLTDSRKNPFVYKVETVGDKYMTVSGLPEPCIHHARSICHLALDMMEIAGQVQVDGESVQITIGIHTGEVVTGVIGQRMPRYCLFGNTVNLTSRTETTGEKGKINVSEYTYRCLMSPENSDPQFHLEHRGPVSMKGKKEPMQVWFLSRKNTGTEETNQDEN
T1 sequence (P19686 1-690): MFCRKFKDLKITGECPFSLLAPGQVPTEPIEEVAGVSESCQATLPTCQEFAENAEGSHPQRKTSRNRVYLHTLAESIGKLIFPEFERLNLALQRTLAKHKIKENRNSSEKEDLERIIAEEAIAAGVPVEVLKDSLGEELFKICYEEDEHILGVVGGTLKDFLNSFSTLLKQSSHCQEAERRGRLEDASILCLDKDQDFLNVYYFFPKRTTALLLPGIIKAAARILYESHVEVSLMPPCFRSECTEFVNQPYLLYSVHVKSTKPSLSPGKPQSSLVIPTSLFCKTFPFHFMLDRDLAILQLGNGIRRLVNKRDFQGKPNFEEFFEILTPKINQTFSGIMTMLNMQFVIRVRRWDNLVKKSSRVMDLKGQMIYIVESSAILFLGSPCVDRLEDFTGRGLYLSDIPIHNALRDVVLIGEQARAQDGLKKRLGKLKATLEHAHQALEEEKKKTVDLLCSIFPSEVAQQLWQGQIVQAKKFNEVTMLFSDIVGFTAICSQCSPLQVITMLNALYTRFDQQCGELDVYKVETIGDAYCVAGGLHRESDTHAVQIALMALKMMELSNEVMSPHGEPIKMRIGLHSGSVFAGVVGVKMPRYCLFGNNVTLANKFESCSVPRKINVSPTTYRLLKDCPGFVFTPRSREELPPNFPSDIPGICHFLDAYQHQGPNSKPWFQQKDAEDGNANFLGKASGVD
Procedure, shortened: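 Cell-based reporter assay with recombinant guanylate cyclase expressed in a reporter cell line, per a published method. Activity reported as minimal effective concentration (MEC), in some cases as the mean of individual determinations.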

`Cc1cc(OCCC(C(F)(F)F)C(F)(F)F)c2nc(C)c(C(=O)NC3CCCC3O)n2c1` (stereo not shown) [Example 173, N-(2-hydroxycyclopentyl)-2,6-dimethyl-8-[4,4,4-trifluoro-3-(trifluoromethyl)butoxy]imidazo[1,2-a]pyridine-3-carboxamide] and `CCC(O)CNC(=O)c1c(C)nc2c(OCCC(C(F)(F)F)C(F)(F)F)cc(C)cn12` (racemic) [Example 174, rac-N-(2-hydroxybutyl)-2,6-dimethyl-8-[4,4,4-trifluoro-3-(trifluoromethyl)butoxy]imidazo[1,2-a]pyridine-3-carboxamide] are the same in “MEC (minimal effective concentration)” value: 3.0 µM for the first, 3.0 µM for the second.

Going from `Cc1nc2c(OCc3c(F)cccc3F)cccn2c1C(=O)NC(c1ccc(F)cc1)C(C)(C)O` (racemic) [Example 152, rac-8-[(2,6-difluorobenzyl)oxy]-N-[1-(4-fluorophenyl)-2-hydroxy-2-methylpropyl]-2-methylimidazo[1,2-a]pyridine-3-carboxamide] to `Cc1nc2c(OCc3c(F)cccc3F)cccn2c1C(=O)NC(C)(C)[C@H](C)O` [Example 20], the “MEC (minimal effective concentration)” value rises from 0.3 µM to 1.0 µM (3.3-fold).

Compared with `Cc1nc2c(OCc3c(F)cccc3F)cccn2c1C(=O)N[C@@H](CO)CCCO` [Example 130, 8-[(2,6-difluorobenzyl)oxy]-N-[(2R)-1,5-dihydroxypentan-2-yl]-2-methylimidazo[1,2-a]pyridine-3-carboxamide], `CCCC[C@H](CO)NC(=O)c1c(C)nc2c(OCc3c(F)cccc3F)cccn12` [Example 1, 8-[(2,6-Difluorobenzyl)oxy]-N-[(2R)-1-hydroxyhexan-2-yl]-2-methylimidazo[1,2-a]pyridine-3-carboxamide] is 20-fold lower in “MEC (minimal effective concentration)” value: 1.0 µM for the first, 0.05 µM for the second.

First: CCCC[C@H](CO)NC(=O)c1c(C)nc2c(OCc3cccc(C(F)(F)F)c3F)cccn12 [Example 14]
Second: CCCC[C@H](CO)NC(=O)c1c(C)nc2c(OCc3cccc(C)c3F)cccn12 [Example 11]
The “MEC (minimal effective concentration)” value of the first is 2-fold higher: 3.0 µM for the first, 1.5 µM for the second.

First: CCCC[C@H](CO)NC(=O)c1c(C)nc2c(OCc3c(F)cccc3F)cc(C#N)cn12 [Example 157, 6-Cyano-8-[(2,6-difluorobenzyl)oxy]-N-[(2R)-1-hydroxyhexan-2-yl]-2-methylimidazo[1,2-a]-pyridine-3-carboxamide]
Second: CCCC[C@H](CO)NC(=O)c1c(C)nc2c(OCc3c(F)cccc3F)cc(CC)cn12 [Example 60, 8-[(2,6-difluorobenzyl)oxy]-6-ethyl-N-[(2R)-1-hydroxyhexan-2-yl]-2-methylimidazo[1,2-a]pyridine-3-carboxamide]
The “MEC (minimal effective concentration)” value of the first is 1.5-fold lower: 0.065 µM for the first, 0.1 µM for the second.

Going from `CCC(CO)NC(=O)c1c(C)nc2c(OCC3CCCCC3)cccn12` (racemic) [Example 69, (rac)-8-(cyclohexylmethoxy)-N-(1-hydroxybutan-2-yl)-2-methylimidazo)[1,2-a]pyridine-3-carboxamide formate] to `Cc1nc2c(OCC3CCCCC3)cccn2c1C(=O)NC(C)CO` (stereo not shown) [Example 84, 8-(cyclohexylmethoxy)-N-(1-hydroxypropan-2-yl)-2-methylimidazo[1,2-a]pyridine-3-carboxamide], the “MEC (minimal effective concentration)” value rises from 0.1 µM to 0.3 µM (3-fold).

Compared with `CCCC[C@@H](NC(=O)c1c(C)nc2c(OCc3c(F)cccc3F)cccn12)C(O)C(F)(F)F` (stereo partly drawn) [Example 142, 8-[(2,6-Difluorobenzyl)oxy]-2-methyl-N-[(3R)-1,1,1-trifluoro-2-hydroxyheptan-3-yl]imidazo[1,2-a]pyridine-3-carboxamide], `Cc1nc2c(OCc3c(F)cccc3F)cccn2c1C(=O)NCC(O)C(F)(F)F` (racemic) [Example 106, rac-8-[(2,6-difluorobenzyl)oxy]-2-methyl-N-(3,3,3-trifluoro-2-hydroxypropyl)imidazo[1,2-a]pyridine-3-carboxamide trifluoroacetate] is 3-fold higher in “MEC (minimal effective concentration)” value: 0.1 µM for the first, 0.3 µM for the second.

Compared with `Cc1nc2c(OCC3CCCCC3)cccn2c1C(=O)NC(CO)(CO)CO` [Example 77, 8-(cyclohexylmethoxy)-N-[1,3-dihydroxy-2-(hydroxymethyl)propan-2-yl]-2-methylimidazo[1,2-a]pyridine-3-carboxamide formate], `Cc1nc2c(OCC3CCCCC3)cccn2c1C(=O)NC(C)(C)C(C)O` (stereo not shown) [Example 87, 8-(cyclohexylmethoxy)-N-(3-hydroxy-2-methylbutan-2-yl)-2-methylimidazo[1,2-a]pyridine-3-carboxamide] is 3.3-fold higher in “MEC (minimal effective concentration)” value: 0.3 µM for the first, 1.0 µM for the second.

Going from `Cc1nc2c(OCc3c(F)cccc3F)cccn2c1C(=O)NC(CCC(F)(F)F)C(C)(C)O` (single isomer, unassigned; ent-8) [Example 155, ent-8-[(2,6-Difluorobenzyl)oxy]-2-methyl-N-(6,6,6-trifluoro-2-hydroxy-2-methylhexan-3-yl)-imidazo[1,2-a]pyridine-3-carboxamide] to `Cc1nc2c(OCc3c(F)cccc3F)cccn2c1C(=O)NC(CO)CC(F)(F)F` (racemic) [Example 113, rac-8-[(2,6-Difluorobenzyl)oxy]-2-methyl-N-(4,4,4-trifluoro-1-hydroxybutan-2-yl)imidazo[1,2-a]-pyridine-3-carboxamide], the “MEC (minimal effective concentration)” value falls from 0.1 µM to 0.03 µM (3.3-fold).

Going from `CCCC[C@H](CO)NC(=O)c1c(C)nc2c(OCc3c(F)cccc3F)cc(N3CCCC3)cn12` [Example 64, 8-[(2,6-difluorobenzyl)oxy]-N-[(2R)-1-hydroxyhexan-2-yl]-2-methyl-6-(pyrrolidin-1-yl)imidazo[1,2-a]pyridine-3-carboxamide] to `CSCC[C@H](CO)NC(=O)c1c(C)nc2c(OCc3c(F)cccc3F)cccn12` [Example 25], the “MEC (minimal effective concentration)” value falls from 3.0 µM to 0.1 µM (30-fold).

Going from `Cc1nc2c(OCc3c(F)cccc3F)cccn2c1C(=O)N[C@@H](CO)Cc1ccccc1` [Example 38] to `Cc1nc2c(OCc3c(F)cccc3F)cccn2c1C(=O)NCCO` [Example 21], the “MEC (minimal effective concentration)” value rises from 0.3 µM to 1.0 µM (3.3-fold).

First: Cc1nc2c(OCc3c(F)cccc3F)cccn2c1C(=O)NC1(CO)CCCC1 [Example 31]
Second: Cc1nc2c(OCc3c(F)cccc3F)cccn2c1C(=O)NCCC1(O)CCCC1 [Example 117, 8-[(2,6-difluorobenzyl)oxy]-N-[2-(1-hydroxycyclopentyl)ethyl]-2-methylimidazo[1,2-a]pyridine-3-carboxamide]
The “MEC (minimal effective concentration)” value of the first is 33-fold higher: 1.0 µM for the first, 0.03 µM for the second.

Going from `Cc1nc2c(OCc3ccccc3)cccn2c1C(=O)NCCC1(O)CCCC1` [Example 48, 8-(benzyloxy)-N-[2-(1-hydroxycyclopentyl)ethyl]-2-methylimidazo[1,2-a]pyridine-3-carboxamide] to `Cc1nc2c(OCc3c(F)cccc3F)cccn2c1C(=O)NC(C)(C)CO` [Example 34], the “MEC (minimal effective concentration)” value falls from 1.0 µM to 0.3 µM (3.3-fold).

Compared with `Cc1cc(OCc2ncccc2F)c2nc(C)c(C(=O)NC(CCCC(F)(F)F)C(C)(C)O)n2c1` (racemic) [Example 178, rac-8-[(3-fluoropyridin-2-yl)methoxy]-2,6-dimethyl-N-(7,7,7-trifluoro-2-hydroxy-2-methylheptan-3-yl)imidazo[1,2-a]pyridine-3-carboxamide trifluoroacetate], `CCC(C)[C@H](CO)NC(=O)c1c(C)nc2c(OCC3CCCCC3)cccn12` (stereo partly drawn) [Example 96, 8-(cyclohexylmethoxy)-N-[(2R)-1-hydroxy-3-methylpentan-2-yl]-2-methylimidazo[1,2-a]pyridine-3-carboxamide] is 3-fold higher in “MEC (minimal effective concentration)” value: 1 µM for the first, 3.0 µM for the second.
